One test concerns PC-3. The test is described as follows: Antiproliferative activity against human PC3 cells assessed as cell viability incubated for 72 hrs by MTT assay. To be noted: PC-3, 72 h. It is filed as functional, cell-based. For orientation: Tetrazolium assays rely on reduction of a dye to a coloured formazan, in cell work by metabolically active cells.
In the next test the test system is DU-145. Nature of the test: Antiproliferative activity against human DU145 cells assessed as cell viability incubated for 72 hrs by MTT assay. The format is functional, cell-based. To be noted: DU-145, 72 h.
The target in test [1] is DNA topoisomerase 1 (Homo sapiens) (UniProt P11387). The test is described as follows: Inhibition of human recombinant topoisomerase 1 assessed as blocking of supercoiled pHOT DNA relaxation at 50 uM incubated for 25 mins at 37 degC by ethidium bromide staining based agarose gel electrophoresis.
The target in test [2] is DNA topoisomerase 2-alpha (Homo sapiens) (UniProt P11388). The test is described as follows: Inhibition of human recombinant topoisomerase 2 alpha assessed as blocking of supercoiled pHOT DNA relaxation at 50 uM incubated for 45 mins at 37 degC by ethidium bromide staining based agarose gel electrophoresis.

The structures appear in SMILES notation. The source made the active and inactive calls. No cut-off for these calls is given here.

Usually IC50 stands for the concentration that inhibits the measured activity by half.

DNA topoisomerase 1 (Homo sapiens), sequence (P11387 whole entry): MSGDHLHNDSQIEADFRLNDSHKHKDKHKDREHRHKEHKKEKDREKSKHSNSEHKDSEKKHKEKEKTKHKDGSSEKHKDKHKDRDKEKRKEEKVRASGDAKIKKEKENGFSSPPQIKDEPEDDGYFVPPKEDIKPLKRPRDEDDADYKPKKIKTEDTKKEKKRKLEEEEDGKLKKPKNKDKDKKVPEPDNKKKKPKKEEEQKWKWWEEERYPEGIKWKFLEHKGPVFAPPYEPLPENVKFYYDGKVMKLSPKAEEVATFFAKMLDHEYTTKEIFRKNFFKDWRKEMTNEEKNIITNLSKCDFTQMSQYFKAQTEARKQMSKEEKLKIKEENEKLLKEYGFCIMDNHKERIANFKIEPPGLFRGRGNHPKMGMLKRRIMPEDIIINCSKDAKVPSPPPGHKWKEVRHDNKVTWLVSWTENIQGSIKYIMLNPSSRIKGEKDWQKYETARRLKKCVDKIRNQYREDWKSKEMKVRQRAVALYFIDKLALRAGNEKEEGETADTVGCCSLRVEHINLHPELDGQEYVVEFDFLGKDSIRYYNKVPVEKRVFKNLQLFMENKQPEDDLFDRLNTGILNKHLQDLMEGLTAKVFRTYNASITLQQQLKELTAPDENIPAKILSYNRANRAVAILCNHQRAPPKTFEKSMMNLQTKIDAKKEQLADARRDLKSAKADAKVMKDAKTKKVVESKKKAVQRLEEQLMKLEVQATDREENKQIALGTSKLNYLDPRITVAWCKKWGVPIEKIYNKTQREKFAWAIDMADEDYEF
DNA topoisomerase 2-alpha (Homo sapiens), sequence (P11388 whole entry): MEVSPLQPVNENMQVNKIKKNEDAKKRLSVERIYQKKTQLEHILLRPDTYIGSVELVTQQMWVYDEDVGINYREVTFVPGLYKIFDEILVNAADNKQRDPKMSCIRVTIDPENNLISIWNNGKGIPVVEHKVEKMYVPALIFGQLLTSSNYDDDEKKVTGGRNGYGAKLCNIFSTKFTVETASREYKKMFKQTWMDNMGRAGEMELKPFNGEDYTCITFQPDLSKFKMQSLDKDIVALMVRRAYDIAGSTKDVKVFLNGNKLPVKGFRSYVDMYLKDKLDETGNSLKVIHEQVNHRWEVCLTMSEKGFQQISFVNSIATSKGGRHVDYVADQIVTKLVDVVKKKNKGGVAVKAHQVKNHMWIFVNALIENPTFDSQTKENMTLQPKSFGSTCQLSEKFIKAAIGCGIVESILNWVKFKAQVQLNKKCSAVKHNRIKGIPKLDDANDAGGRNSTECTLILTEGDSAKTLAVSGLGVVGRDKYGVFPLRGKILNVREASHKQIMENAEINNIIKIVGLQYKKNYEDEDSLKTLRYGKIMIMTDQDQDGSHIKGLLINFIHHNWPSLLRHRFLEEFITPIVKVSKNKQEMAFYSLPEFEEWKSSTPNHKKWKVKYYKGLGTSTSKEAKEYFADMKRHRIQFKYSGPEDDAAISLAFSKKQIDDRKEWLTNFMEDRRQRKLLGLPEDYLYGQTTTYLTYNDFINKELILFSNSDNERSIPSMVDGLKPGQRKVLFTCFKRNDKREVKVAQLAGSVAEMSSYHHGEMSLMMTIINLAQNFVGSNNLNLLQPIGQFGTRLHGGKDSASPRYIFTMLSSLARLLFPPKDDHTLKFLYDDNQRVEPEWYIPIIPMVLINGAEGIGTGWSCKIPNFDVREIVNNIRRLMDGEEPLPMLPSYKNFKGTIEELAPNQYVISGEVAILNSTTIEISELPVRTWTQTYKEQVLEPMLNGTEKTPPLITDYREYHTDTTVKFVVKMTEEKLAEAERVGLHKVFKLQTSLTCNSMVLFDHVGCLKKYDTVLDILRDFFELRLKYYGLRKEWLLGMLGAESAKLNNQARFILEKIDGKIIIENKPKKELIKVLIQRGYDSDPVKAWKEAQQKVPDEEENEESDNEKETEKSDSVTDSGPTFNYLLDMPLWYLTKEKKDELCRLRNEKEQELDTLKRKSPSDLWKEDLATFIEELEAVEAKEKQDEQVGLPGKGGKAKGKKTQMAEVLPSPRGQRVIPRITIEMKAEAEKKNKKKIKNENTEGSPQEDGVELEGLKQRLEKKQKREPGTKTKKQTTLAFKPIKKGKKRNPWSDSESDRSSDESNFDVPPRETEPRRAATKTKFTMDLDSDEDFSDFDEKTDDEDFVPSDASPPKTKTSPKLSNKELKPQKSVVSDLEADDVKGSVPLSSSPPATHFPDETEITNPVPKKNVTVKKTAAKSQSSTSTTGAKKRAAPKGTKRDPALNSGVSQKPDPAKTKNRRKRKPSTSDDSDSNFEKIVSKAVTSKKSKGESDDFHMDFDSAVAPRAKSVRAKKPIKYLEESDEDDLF

On to `O=c1c2cc(Cl)ccc2sc2c(N3CCC(Cc4ccccc4)CC3)nc3ccccc3c12`, for which the IC50 with PC-3 and in the test on DU-145 was over 15 µM each time.

As for `O=c1c2cc(Cl)ccc2sc2c(N3CCCC3)nc3ccccc3c12`, the concentration for half-maximal inhibition (IC50) in the test on PC-3 and in the test on DU-145 was over 15 µM in each case.

For `COc1cccc2c1C(=O)c1c(O)c3c(c(O)c1C2=O)C[C@@](O)(C(=O)CO)C[C@@H]3O[C@H]1C[C@H](N)[C@H](O)[C@H](C)O1` [DOXORUBICIN], the 50% inhibitory concentration (IC50) in the test on DU-145 is 0.12 µM.

Consider `O=c1c2cc(Cl)ccc2sc2c(N3CCSCC3)nc3ccccc3c12`, for which the IC50 in the test on PC-3 and with DU-145 was over 15 µM each time.

For `O=c1c2cc(Cl)ccc2sc2c(N3CCC(CCCC4CCNCC4)CC3)nc3ccccc3c12`, the IC50 with PC-3 was determined as 6.36 µM; in the test with DU-145 it was 9.02 µM. Moreover, in test [1], the inhibition result is “Active”.

With `O=c1c2cc(Cl)ccc2sc2c(N3CCC(N4CCCCC4)CC3)nc3ccccc3c12`, the IC50 amounted to 14.2 µM in the test with PC-3 and 10.2 µM in the test with DU-145.

For the compound `O=c1c2cc(Cl)ccc2sc2c(N3CCCCC3)nc3ccccc3c12`, the results for the half-maximal inhibitory concentration (IC50) in the test on PC-3 and with DU-145 were over 15 µM and 13.4 µM, respectively.

As for `CC[C@@]1(O)C(=O)OCc2c1cc1n(c2=O)Cc2cc3ccccc3nc2-1` [CAMPTOTHECIN], the IC50 in the test with PC-3 and in the test with DU-145 was 0.1 µM in each case.

For the compound `O=c1c2cc(Cl)ccc2sc2c(N3CCC(O)CC3)nc3ccccc3c12`, the IC50 with PC-3 was found to be 9.55 µM; with DU-145 it was 11.1 µM. The inhibition entry in test [1] is “Active”.

Consider `COc1cc([C@@H]2c3cc4c(cc3[C@@H](O[C@@H]3O[C@@H]5CO[C@@H](C)O[C@H]5[C@H](O)[C@H]3O)[C@H]3COC(=O)[C@H]23)OCO4)cc(OC)c1O` [ETOPOSIDE], for which the results for the 50% inhibitory concentration (IC50) in the test with PC-3 and in the test on DU-145 were 4.33 µM and 0.4 µM, respectively. For the same compound, the inhibition entry in test [2] is “Active”.

The values above are taken from ChEMBL document CHEMBL3627688, “Structure-based hybridization, synthesis and biological evaluation of novel tetracyclic heterocyclic azathioxanthone analogues as potential antitumor agents” (Eur J Med Chem, 2015).
